# ChEMBL document CHEMBL4699452, “Design, synthesis, and optimization of a series of 2-azaspiro[3.3]heptane derivatives as orally bioavailable fetal hemoglobin inducers” (Bioorg Med Chem Lett, 2020)
# Active and inactive are the calls of the source. The rule behind the calls is not given here.
# Columns and labels:
# [1] = Metabolic stability in monkey liver microsomes assessed as parent compound remaining at 0.5 mg/mL incubated for 0.5 hrs; type: ADME, Macaca mulatta, Microsome; conditions: rhesus monkey, read-out: Stabilty
# [2] = Metabolic stability in human liver microsomes assessed as parent compound remaining at 0.5 mg/mL incubated for 0.5 hrs; type: ADME, Microsome; conditions: read-out: Stabilty
# [3] = Induction of fetal hemoglobin in human bone marrow derived CD34+ cells incubated for 5 days by FITC staining based flow cytometry analysis; type: functional, tissue-based; conditions: cd34-positive (myeloid/lymphoid) cell
# [4] = AUClast in monkey at 1 mg/kg, po; type: ADME, organism-based, Macaca mulatta; parameters: route oral, time 0 - last, dose 1 mg/kg; conditions: rhesus monkey, in vivo
# [5] = biological target: T1, CYP3A4 (Homo sapiens, UniProt P08684); test: Inhibition of CYP3A4 (unknown origin) at 10 uM relative to control; type: ADME
# T1 sequence (P08684 whole entry): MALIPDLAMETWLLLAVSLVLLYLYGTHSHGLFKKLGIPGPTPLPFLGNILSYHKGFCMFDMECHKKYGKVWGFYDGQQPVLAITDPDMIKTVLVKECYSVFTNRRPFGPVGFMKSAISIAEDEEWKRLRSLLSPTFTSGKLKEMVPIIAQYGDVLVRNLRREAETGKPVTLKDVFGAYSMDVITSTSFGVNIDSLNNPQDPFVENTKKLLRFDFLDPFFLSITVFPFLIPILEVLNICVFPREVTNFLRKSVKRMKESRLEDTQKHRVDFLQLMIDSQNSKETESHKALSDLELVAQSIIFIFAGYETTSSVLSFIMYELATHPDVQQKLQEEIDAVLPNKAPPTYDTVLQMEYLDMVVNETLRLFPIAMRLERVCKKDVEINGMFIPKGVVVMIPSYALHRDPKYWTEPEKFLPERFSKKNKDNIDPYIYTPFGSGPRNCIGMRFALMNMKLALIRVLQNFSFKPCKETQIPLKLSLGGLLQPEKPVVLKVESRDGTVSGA
# [6] = Genotoxicity in Salmonella typhimurium by Ames test; type: toxicity; conditions: salmonella enterica subsp. enterica serovar typhimurium
# [7] = biological target: CYP2D6 (Homo sapiens, UniProt P10635); test: Inhibition of CYP2D6 (unknown origin) at 10 uM relative to control; type: ADME
# CYP2D6, sequence (P10635 whole entry): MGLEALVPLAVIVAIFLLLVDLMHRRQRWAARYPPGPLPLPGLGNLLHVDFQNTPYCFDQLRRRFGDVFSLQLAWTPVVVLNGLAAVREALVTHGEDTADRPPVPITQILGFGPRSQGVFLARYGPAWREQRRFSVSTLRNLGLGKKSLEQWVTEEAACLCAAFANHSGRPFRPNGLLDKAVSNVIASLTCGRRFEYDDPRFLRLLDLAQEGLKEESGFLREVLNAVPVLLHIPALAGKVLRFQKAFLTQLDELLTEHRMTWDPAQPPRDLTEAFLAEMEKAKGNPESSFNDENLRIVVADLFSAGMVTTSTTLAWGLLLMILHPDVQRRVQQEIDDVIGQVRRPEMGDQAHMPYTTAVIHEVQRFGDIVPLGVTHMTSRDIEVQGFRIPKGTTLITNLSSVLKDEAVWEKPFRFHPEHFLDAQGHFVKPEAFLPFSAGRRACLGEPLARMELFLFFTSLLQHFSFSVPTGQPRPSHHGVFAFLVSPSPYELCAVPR
# [8] = Cytotoxicity against human bone marrow derived CD34+ cells assessed as effect on cell viability at 0.47 to 15 uM by propidium iodide staining based assay; conditions: cd34-positive (myeloid/lymphoid) cell, dose 0.47-15 µM
# [9] = biological target: T2, CYP1A2 (Homo sapiens, UniProt P05177); test: Inhibition of CYP1A2 (unknown origin) at 10 uM relative to control; type: ADME
# T2 sequence (P05177 whole entry): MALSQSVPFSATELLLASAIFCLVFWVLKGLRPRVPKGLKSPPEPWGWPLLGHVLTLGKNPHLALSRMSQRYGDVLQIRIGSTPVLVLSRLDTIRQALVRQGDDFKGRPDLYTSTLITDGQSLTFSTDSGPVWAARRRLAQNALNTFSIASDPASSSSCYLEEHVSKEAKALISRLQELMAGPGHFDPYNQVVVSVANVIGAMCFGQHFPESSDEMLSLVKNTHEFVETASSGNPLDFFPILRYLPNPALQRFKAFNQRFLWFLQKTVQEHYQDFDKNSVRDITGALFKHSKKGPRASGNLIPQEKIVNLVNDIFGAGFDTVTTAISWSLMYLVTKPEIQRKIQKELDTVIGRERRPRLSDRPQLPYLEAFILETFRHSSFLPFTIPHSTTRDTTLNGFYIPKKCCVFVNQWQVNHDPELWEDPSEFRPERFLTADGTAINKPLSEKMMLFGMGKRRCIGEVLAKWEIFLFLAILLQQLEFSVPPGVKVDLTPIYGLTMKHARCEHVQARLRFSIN
# [10] = Protein binding in monkey plasma; type: ADME, cell-free, Macaca mulatta; conditions: rhesus monkey, read-out: PPB (converted)
# [11] = biological target: T1, CYP3A4; test: Mechanism based inhibition of CYP3A4 in human liver microsomes assessed as remaining percentage at 100 uM in presence of substrate incubated for 30 mins relative to control; type: ADME; conditions: read-out: Activity
# [12] = Induction of fetal hemoglobin in human bone marrow derived CD34+ cells assessed as maximum efficacy incubated for 5 days by FITC staining based flow cytometry analysis relative to decitabine; type: functional; conditions: CD34-positive (myeloid/lymphoid) cell, 120 h, time 5 day
# [13] = Half life in monkey at 1 mg/kg, po; type: ADME, organism-based, Macaca mulatta; conditions: rhesus monkey, in vivo
# [14] = Solubility of the compound in pH 6.8 JP2 fluid; type: physicochemical
# [15] = Cmax in monkey at 1 mg/kg, po; type: ADME, organism-based, Macaca mulatta; parameters: route oral, dose 1 mg/kg; conditions: rhesus monkey, in vivo
# [16] = biological target: CYP2C9 (Homo sapiens, UniProt P11712); test: Inhibition of CYP2C9 (unknown origin) at 10 uM relative to control; type: ADME
# CYP2C9, sequence (P11712 whole entry): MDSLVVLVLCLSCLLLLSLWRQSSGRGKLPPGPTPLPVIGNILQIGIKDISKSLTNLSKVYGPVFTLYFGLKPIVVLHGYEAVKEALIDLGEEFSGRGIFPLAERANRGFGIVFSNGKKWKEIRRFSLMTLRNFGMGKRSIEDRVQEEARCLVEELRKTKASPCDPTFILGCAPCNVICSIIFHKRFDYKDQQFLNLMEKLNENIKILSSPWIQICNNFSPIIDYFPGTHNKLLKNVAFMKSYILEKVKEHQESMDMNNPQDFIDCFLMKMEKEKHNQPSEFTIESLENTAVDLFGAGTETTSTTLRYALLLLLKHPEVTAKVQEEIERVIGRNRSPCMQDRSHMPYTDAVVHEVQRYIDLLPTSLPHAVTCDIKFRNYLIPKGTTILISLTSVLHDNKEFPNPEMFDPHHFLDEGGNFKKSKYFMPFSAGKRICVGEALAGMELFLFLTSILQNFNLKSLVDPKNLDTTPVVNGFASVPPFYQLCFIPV
# [17] = Solubility of the compound in pH 1.2 JP1 fluid; type: physicochemical
# [18] = biological target: hERG (KCNH2) (Homo sapiens, UniProt Q12809); test: Inhibition of human ERG at 10 uM relative to control
# hERG (KCNH2), sequence (Q12809 whole entry): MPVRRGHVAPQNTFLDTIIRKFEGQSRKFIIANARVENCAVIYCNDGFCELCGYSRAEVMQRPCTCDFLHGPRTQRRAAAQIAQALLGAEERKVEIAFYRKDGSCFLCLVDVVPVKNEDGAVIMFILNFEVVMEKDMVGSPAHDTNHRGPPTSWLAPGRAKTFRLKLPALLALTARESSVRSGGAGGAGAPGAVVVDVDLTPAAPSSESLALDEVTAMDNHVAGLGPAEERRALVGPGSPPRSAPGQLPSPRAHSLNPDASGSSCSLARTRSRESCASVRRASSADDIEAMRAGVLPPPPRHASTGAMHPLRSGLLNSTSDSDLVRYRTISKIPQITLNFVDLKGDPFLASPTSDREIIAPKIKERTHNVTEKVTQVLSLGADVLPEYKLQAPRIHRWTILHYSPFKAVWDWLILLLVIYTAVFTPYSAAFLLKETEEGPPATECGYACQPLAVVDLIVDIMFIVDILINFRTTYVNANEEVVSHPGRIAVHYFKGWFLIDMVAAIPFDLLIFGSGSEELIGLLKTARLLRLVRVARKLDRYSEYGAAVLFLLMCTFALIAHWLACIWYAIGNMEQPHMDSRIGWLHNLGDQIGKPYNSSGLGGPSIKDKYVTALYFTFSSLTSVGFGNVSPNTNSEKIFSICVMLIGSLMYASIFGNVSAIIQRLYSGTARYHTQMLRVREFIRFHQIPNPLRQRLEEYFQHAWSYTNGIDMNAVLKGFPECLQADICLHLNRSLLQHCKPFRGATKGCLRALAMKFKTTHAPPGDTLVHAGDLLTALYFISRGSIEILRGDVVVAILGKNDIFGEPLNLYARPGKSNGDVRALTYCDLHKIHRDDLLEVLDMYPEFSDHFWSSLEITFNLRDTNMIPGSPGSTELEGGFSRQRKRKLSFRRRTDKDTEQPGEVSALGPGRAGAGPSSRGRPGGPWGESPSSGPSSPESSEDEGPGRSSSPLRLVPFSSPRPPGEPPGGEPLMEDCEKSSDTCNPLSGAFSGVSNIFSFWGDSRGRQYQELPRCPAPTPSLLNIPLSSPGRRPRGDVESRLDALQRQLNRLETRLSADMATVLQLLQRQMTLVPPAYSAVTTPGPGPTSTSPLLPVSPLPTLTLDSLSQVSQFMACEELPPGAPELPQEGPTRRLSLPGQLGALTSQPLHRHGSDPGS
# [19] = Cmax in monkey at 10 mg/kg, po; type: ADME, organism-based, Macaca mulatta; parameters: route oral, dose 10 mg/kg; conditions: rhesus monkey, in vivo
# [20] = AUClast in monkey at 10 mg/kg, po; type: ADME, organism-based, Macaca mulatta; parameters: route oral, time 0 - last, dose 10 mg/kg; conditions: rhesus monkey, in vivo
# [21] = Half life in monkey at 10 mg/kg, po; type: ADME, organism-based, Macaca mulatta; conditions: rhesus monkey, in vivo
# [22] = tested on: Macaca fascicularis; test: In vivo induction of fetal hemoglobin in cynomolgus monkey assessed as gamma-globin gene expression at 30 mg/kg, po qd administered for 6 consecutive days by RT-qPCR analysis; type: functional, organism-based; conditions: time 6.0 day
# [23] = tested on: Macaca fascicularis; test: In vivo induction of fetal hemoglobin in po dosed cynomolgus monkey assessed as gamma-globin gene expression administered twice for 6 consecutive days by RT-qPCR analysis; type: functional, organism-based; conditions: dose mg/kg 15-30, time 6.0 day
# [24] = Cytotoxicity against human bone marrow derived CD34+ cells assessed as effect on cell viability at 15 uM by propidium iodide staining based assay relative to control; parameters: species or system CD34-positive (myeloid/lymphoid) cell; conditions: read-out: Activity
# [25] = Toxicity in cynomolgus monkey assessed as transient hypoglycemia at 30 mg/kg, po qd administered for 6 consecutive days; type: organism-based, Macaca fascicularis; conditions: in vivo, 144 h, time 6 day
Structure (SMILES),remaining at 0.5 h [1] [%],remaining at 0.5 h [2] [%],EC50 [3] [µM],Emax [12] [%],also measured
CC(=O)N1CC(CNC(=O)c2cc(-c3ccccc3)no2)C1,17,50,> 5,,
CN(C)C(=O)CCN(C)C(=O)c1cc(-c2ccc(F)cc2)no1,36,98,> 5,,
CC(=O)N1CC2(CC(NC(=O)c3cc(-c4ccc(F)cc4)no3)C2)C1,79,84,2.9,64,"AUC(0-t) [4]: 2350 ng·h/mL; inhibition at 10 µM [5]: < 0%; Activity [6]: Non-Toxic; inhibition at 10 µM [7]: 1%; Activity [8]: Non-Toxic; inhibition at 10 µM [9]: 1%; fraction unbound [10]: 0.28; activity at 0.5 h, 100 µM [11]: 98%; half-life [13]: 5.9 h; solubility [14]: > 100 µg/mL; Cmax [15]: 460 ng/mL; inhibition at 10 µM [16]: < 0%; solubility [17]: > 100 µg/mL"
CC(CC(=O)N(C)C)NC(=O)c1cc(-c2ccc(F)cc2)no1 (racemic),35,91,> 5,,
CCN1CC2(CC(NC(=O)c3cc(-c4ccccc4)no3)C2)C1,87,100,5,50,
CN(C)C(=O)CCNC(=O)c1cc(-c2cccc(F)c2)no1,55,> 100,> 5,,
CN(C)C(=O)CCNC(=O)c1cc(-c2ccc(F)cc2)no1,10,87,2.8,56,"inhibition at 10 µM [5]: < 0%; Activity [6]: Non-Toxic; inhibition at 10 µM [7]: 5%; inhibition at 10 µM [18]: 7.1%; inhibition at 10 µM [9]: 6%; fraction unbound [10]: 0.42; Cmax [19]: 1360 ng/mL; AUC(0-t) [20]: 4360 ng·h/mL; activity at 0.5 h, 100 µM [11]: 97%; half-life [21]: 1 h; solubility [14]: > 100 µg/mL; inhibition at 10 µM [16]: 6%; solubility [17]: > 100 µg/mL"
CN(C)C(=O)CNC(=O)c1cc(-c2ccc(F)cc2)no1,11,84,6.1,41,
CN(C)C(=O)CCNC(=O)c1cc(-c2ccccc2)no1,4.7,81,1.7,51,
CC(CNC(=O)c1cc(-c2ccc(F)cc2)no1)C(=O)N(C)C (racemic),52,61,> 5,,
CN(C)C(=O)CCNC(=O)c1csc(-c2ccc(F)cc2)n1,0.1,53,> 5,,
CN(C)C(=O)CCN1CCn2cc(-c3ccc(F)cc3)cc2C1=O,41,94,> 5,,
CC(C)C(=O)N1CC2(CC(NC(=O)c3cc(-c4ccccc4)no3)C2)C1,55,79,> 5,27,
CS(=O)(=O)N1CC2(CC(NC(=O)c3cc(-c4ccccc4)no3)C2)C1,87,76,3.9,45,
CN(C)C(=O)CCCNC(=O)c1cc(-c2ccc(F)cc2)no1,,,4.1,55,
CN(C)C(=O)CCNC(=O)c1cc(C2CCCCC2)no1,34,> 100,> 5,,
CN(C)C(=O)CCNC(=O)c1cc(-c2ccccc2F)no1,4,> 100,> 5,37,
CN(C)C(=O)CCNC(=O)C1CSC(c2ccc(F)cc2)N1 (mixture of isomers),32,90,> 5,,
CC(=O)N1CC2(CC(NC(=O)c3cc(-c4ccccc4)no3)C2)C1,64,> 100,2.8,54,"AUC(0-t) [4]: 4210 ng·h/mL; inhibition at 10 µM [5]: < 0%; Activity [22]: Active; Activity [6]: Non-Toxic; inhibition at 10 µM [7]: 2%; inhibition at 10 µM [18]: 18%; inhibition at 10 µM [9]: 3%; fraction unbound [10]: 0.41; activity at 0.5 h, 100 µM [11]: 94%; half-life [13]: 3.7 h; Activity [23]: Dose-dependent effect; solubility [14]: > 100 µg/mL; viability at 15 µM [24]: 20%; Activity [25]: Toxic; Cmax [15]: 545 ng/mL; inhibition at 10 µM [16]: < 0%; solubility [17]: > 100 µg/mL"
CCC(=O)N1CC2(CC(NC(=O)c3cc(-c4ccccc4)no3)C2)C1,69,68,> 5,47,
CN(C)C(=O)CCN1CCc2c(cc(-c3ccc(F)cc3)n2C)C1=O,42,> 100,> 5,,
CN(C)CCCNC(=O)c1cc(-c2ccc(F)cc2)no1,,,> 5,,
CN(C)C(=O)CCN1CCc2[nH]c(-c3ccc(F)cc3)cc2C1=O,39,99,> 5,,
